Measured values reported in patent US20220411782A1, “PHAGE COMPOSITIONS COMPRISING CRISPR-CAS SYSTEMS AND METHODS OF USE THEREOF” (priority 2019, published 2022).
Counter-ions that a name gives are not always drawn.

System: E. coli strain LFP 527
Assay: Mouse UTI model, pooled CFU results of Examples 7 and 8 (Example 9)
Assay type: in vivo, Escherichia coli in mice (Mus musculus)
Details: for # samples <LOD / Mean log CFU/g: ciprofloxacin IV 5 mg/kg; for Delta from LR: ciprofloxacin IV compared with intravenous LR
Method: The crPhage cocktail was a mixture of phages p0033L-10 (ATCC No. PTA-126316), p004k-5 (ATCC No. PTA-126319), and p0071-16 (ATCC No. PTA-126320) at concentrations of 2×10^11 plaque forming units (PFU)/mL/phage (“high”), 2×10^9 PFU/mL/phage (“medium”), or 2×10^7 PFU/mL/phage (“low”). A 50 μl dose thus provided 1×10^10 PFU/phage (“high”), 1×10^8 PFU/phage (“medium”), or 1×10^6 PFU/phage (“low”). Lactated Ringer's (LR) solution served as a negative control and ciprofloxacin (Cipro) served as a positive control.
Female C3H/HeN mice were infected with E. coli strain LFP 527 via intraurethral (IU) instillation. Beginning 48 hours after infection, a test article of phage cocktail containing p0033L-10, p004k-5, and p0071-16 was administered at time zero and every 12 hours for 48 hours (for a total of 5 doses). Phage cocktail with a range of phage concentrations (Table 16) or vehicle was delivered either intravenously (IV) or by IU instillation into the bladder. The phage cocktails were prepared using LR.

`O=C(O)c1cn(C2CC2)c2cc(N3CCNCC3)c(F)cc2c1=O` [ciprofloxacin, Ciprofloxacin hydrochloride] was tested, and the “# samples <LOD” value (Bladder, 54 hours) was 0, the “Mean log CFU/g” value (Bladder, 54 hours) was 4.96 log CFU/g and the “Delta from LR” value (Bladder, 54 hours) was −1.55 (n.s.) log CFU/g. The “# samples <LOD” value (Bladder, 102 hours) was 1, the “Mean log CFU/g” value (Bladder, 102 hours) was 3.16 log CFU/g and the “Delta from LR” value (Bladder, 102 hours) was −2.23 (p = 0.0033) log CFU/g. The “# samples <LOD” value (Kidney, 54 hours) was 0, the “Mean log CFU/g” value (Kidney, 54 hours) was 3.47 log CFU/g and the “Delta from LR” value (Kidney, 54 hours) was −1.66 (n.s.) log CFU/g. The “# samples <LOD” value (Kidney, 102 hours) was 3, the “Mean log CFU/g” value (Kidney, 102 hours) was 2.03 log CFU/g and the “Delta from LR” value (Kidney, 102 hours) was −3.11 (p <0.0001) log CFU/g.
